Test system: Corn leaf discs (variety Multitop)
Assay: Dark induced senescence of corn leaf
Type: in vivo
Details: Zea mays, foliar, 192 h; corn leaf discs in the dark, 23° C., 75% humidity, 8 days; 100 μM-0.0001 μM, 0.5% DMSO; image analysis; read-out: IC50 (concentration at which 50% senescence was achieved)
Experimental: Corn plants of variety Multitop were grown in a greenhouse with relative 75% humidity and at 23-25° C. for 6 weeks. 1.4 cm diameter leaf discs were placed into 24-well plates containing test compounds in a concentration gradient (100 μM-0.0001 μM) at a final concentration of 0.5% DMSO. Each concentration was tested in 12 replicates. Plates were sealed with seal foil. The foil was pierced to provide gas exchange in each well. The plates were placed into the completely dark climatic chamber. Plates were incubated in the chamber with 75% humidity and at 23° C. for 8 days. On days 0, 5, 6, 7 and 8 photographs were taken of each plate, and image analysis conducted with a macro developed using the ImageJ software. The image analysis was used to determine the concentration at which 50% senescence was achieved (IC50), see Table 3. The lower the value, the higher senescence induction potency.

IC50, < 3 µM:
CCOC(=O)/C(=C/OC1OC(=O)C(C)=C1C)n1cnc2c(N(C)C)nc(F)nc21 (stereo not shown) [Compound I-61-Z, ethyl (Z)-2-[6-(dimethylamino)-2-fluoro-purin-9-yl]-3-[(3,4-dimethyl-5-oxo-2H-furan-2-yl)oxy]prop-2-enoate]
CCOC(=O)/C(=C/OC1C=C(C)C(=O)O1)N1CCc2cc(Br)ccc21 (stereo not shown) [Compound I-72-Z, ethyl (Z)-2-(5-bromoindolin-1-yl)-3-[(4-methyl-5-oxo-2H-furan-2-yl)oxy]prop-2-enoate]
CCOC(=O)/C(=C/OC1OC(=O)C(C)=C1C)n1ccc2nccnc21 (stereo not shown) [Compound I-90-Z, ethyl (Z)-3-[(3,4-dimethyl-5-oxo-2H-furan-2-yl)oxy]-2-pyrrolo[2,3-b]pyrazin-5-yl-prop-2-enoate]
CCOC(=O)/C(=C/OC1C=C(C)C(=O)O1)n1ccc2cc(C(F)(F)F)ccc21 (stereo not shown) [Compound I-2-Z, ethyl (Z)-3-[(4-methyl-5-oxo-2H-furan-2-yl)oxy]-2-[5-(trifluoromethyl)indol-1-yl]prop-2-enoate]
CCOC(=O)/C(=C/OC1OC(=O)C(C)=C1C)n1c(C)c(C)c2ccccc21 (stereo not shown) [Compound I-30-Z, ethyl (Z)-2-(2,3-dimethylindol-1-yl)-3-[(3,4-dimethyl-5-oxo-2H-furan-2-yl)oxy]prop-2-enoate]
CCOC(=O)/C(=C/OC1C=C(C)C(=O)O1)n1ncc2ccccc21 (stereo not shown) [Compound I-42-Z, ethyl (Z)-2-indazol-1-yl-3-[(4-methyl-5-oxo-2H-furan-2-yl)oxy]prop-2-enoate]
CCOC(=O)/C(=C/OC1C=C(C)C(=O)O1)n1c(C)c(C)c2ccccc21 (stereo not shown) [Compound I-29-Z, ethyl (Z)-2-(2,3-dimethylindol-1-yl)-3-[(4-methyl-5-oxo-2H-furan-2-yl)oxy]prop-2-enoate]
CCOC(=O)/C(=C/OC1C=C(C)C(=O)O1)n1cc(C)c2ccccc21 (stereo not shown) [Compound I-27-Z, ethyl (Z)-2-(3-methylindol-1-yl)-3-[(4-methyl-5-oxo-2H-furan-2-yl)oxy]prop-2-enoate]
CCOC(=O)/C(=C/OC1OC(=O)C(C)=C1C)n1nc(C)c(C)c1C (stereo not shown) [Compound I-81-Z, ethyl (Z)-3-[(3,4-dimethyl-5-oxo-2H-furan-2-yl)oxy]-2-(3,4,5-trimethylpyrazol-1-yl)prop-2-enoate]
CCOC(=O)/C(=C/OC1OC(=O)C(C)=C1C)N1CCc2cc(Br)ccc21 (stereo not shown) [Compound I-73-Z, ethyl (Z)-2-(5-bromoindolin-1-yl)-3-[(3,4-dimethyl-5-oxo-2H-furan-2-yl)oxy]prop-2-enoate]
CCOC(=O)/C(=C/OC1OC(=O)C(C)=C1C)n1c(C)nc2ccccc21 (stereo not shown) [Compound I-59-Z, ethyl (Z)-3-[(3,4-dimethyl-5-oxo-2H-furan-2-yl)oxy]-2-(2-methylbenzimidazol-1-yl)prop-2-enoate]
CCOC(=O)/C(=C/OC1OC(=O)C(C)=C1C)n1cc(C)c2ccccc21 (stereo not shown) [Compound I-28-Z, ethyl (Z)-3-[(3,4-dimethyl-5-oxo-2H-furan-2-yl)oxy]-2-(3-methylindol-1-yl)prop-2-enoate]
CCOC(=O)/C(=C/OC1OC(=O)C(C)=C1C)n1c(=O)sc2ccccc21 (stereo not shown) [Compound I-65-Z]
CCOC(=O)/C(=C/OC1C=C(C)C(=O)O1)n1cnc2c(N(C)C)nc(F)nc21 (stereo not shown) [Compound I-60-Z, ethyl (Z)-2-[6-(dimethylamino)-2-fluoro-purin-9-yl]-3-[(4-methyl-5-oxo-2H-furan-2-yl)oxy]prop-2-enoate]
CCOC(=O)/C(=C/OC1C=C(C)C(=O)O1)n1ccc2ccccc21 (stereo not shown) [Compound I-1-Z, ethyl (Z)-2-indol-1-yl-3-[(4-methyl-5-oxo-2H-furan-2-yl)oxy]prop-2-enoate]
CCOC(=O)/C(=C/OC1OC(=O)C(C)=C1C)n1ccc2cc(F)ccc21 (stereo not shown) [Compound I-9-Z, ethyl (Z)-3-[(3,4-dimethyl-5-oxo-2H-furan-2-yl)oxy]-2-(5-fluoroindol-1-yl)prop-2-enoate]

From US20230339916A1, “PLANT GROWTH REGULATOR COMPOUNDS” (SYNGENTA CROP PROTECTION AG, priority 2020, published 2023)
